PMC6468747 (Cancers, 2019)
Where two headings read alike, the source gives them in different places.

Legend:
[1] = Plasma pharmacokinetics after single IV and PO dosing; format: in vivo, female CD1 mice; conditions: mouse, in vivo
Description: 5. In vivo Pharmacokinetics (PK) Determination: These studies were Performed by Charles River Laboratories (CRL), Discovery Services, 251 Ballardvale Street, Wilmington, MA 01887, USA.
The PK studies were performed according to the guidelines and approval of CRL Institutional Animal Care and Use Committee (IACUC) under IACUC approval no: P04172013.
A total of sixty‐four naïve female CD‐1 mice (including 6 spare animals) were received from Charles River Laboratories, Kingston, NY. Following an acclimation period, the animals were assigned to the study based on acceptable health as determined by a staff veterinarian. For dosing, animals were placed into six groups as detailed in the study design table below. All animals were fasted overnight prior to dosing and food was returned after the 4‐h post‐dose blood collections.
Each animal in Groups 1, 3 and 5 received a single administration of prepared test article by intravenous tail administration at a target dose level of 2 mg/kg and dose volume of 10 mL/kg. Each animal in Groups 2, 4 and 6 received a single administration of prepared test article by oral gavage at a target dose level of 20 mg/kg and at a dose volume of 10 mL/kg. Dosing was performed on August 13, 2015 as detailed in the study protocol and was completed without incident. Dose administration […]
Following dosing and at each sample collection time
Group Mices Test Compound Level Conc. Volume Dose Vehicle Route […]
Interim blood samples were collected in a leapfrog design from each animal by puncture of a submandibular vein and a terminal blood sample was collected from each animal by intracardiac puncture following euthanasia with CO2 as outlined in the sample collection table below.
All blood samples were transferred into tubes containing K2EDTA anticoagulant and placed on wet ice immediately after collection until centrifuged at 2200 × g for 10 min at […] to isolate plasma.
The resulting plasma was transferred to individual polypropylene tubes in a 96‐well plate format and immediately placed on dry ice until storage at nominally […] before transfer to the Test Facility’s bioanalysis group for concentration and HPLC analysis. Individual blood collection times are […]
Table S4. Sample Collections.
Collection Information Whole Blood for Plasma Whole Blood for Plasma
Subgroup A (n = 3) 5 min & 1 h post‐dose 8 h post‐dose
Subgroup B (n = 3) 15 min & 4 h post‐dose 12 h post‐dose
Subgroup C (n = 3) 30 min & 6 h post‐dose 24 h post‐dose
Subgroup D (n = 2) Not applicable 2 h post‐dose
Subgroup A (n = 3) 15 min & 2 h post‐dose 8 h post‐dose
Subgroup B (n = 3) 30 min & 4 h post‐dose 12 h post‐dose
Subgroup C (n = 3) 1 hr & 6 h post‐dose 24 h post‐dose
Collection conditions K2EDTA K2EDTA
Collection route Submandibular Intracardiac puncture
Volume/Time point 100 μL Maximum volume
The plasma samples for Groups 1‐6, Subgroups A‐C were analyzed for test article concentration using a Research Grade LC MS/MS Assay (RGA‐Level 1). The bioanalytical report, including plasma […]
Pharmacokinetic parameters were estimated from the plasma concentration‐time data using standard non‐compartmental methods and utilizing suitable analysis software (Watson 7.2 Bioanalytical LIMS, Thermo Electron Corp). Parameters were estimated using nominal sampling times relative to the start of each dose administration (within an acceptable tolerance limit).
Concentrations below the limit of quantification were excluded from the pharmacokinetic analysis.
The area under the plasma test item concentration versus time curve (AUC) was calculated using the linear‐log‐linear trapezoidal method. When practical, the terminal elimination phase of each concentration versus time curve was identified using at least the final three observed concentration values. The slope of the terminal elimination phase was determined using log linear regression on the unweighted concentration data.
Parameter Description of Parameter […]

[2] = test system: panel of 6 human TNBC cell lines; assay: MTT cell growth assay, summary over the panel; format: cell-based; conditions: 7 days
Description: Figure 3 In vitro characterization, pharmacokinetics and toxicity profile of VNLG-152R and its two enantiomers. (A) HPLC chromatograms racemic VNLG-152R (left panel) and the resolved enantiomers VNLG-152E1 and VNLG-152E2 (right panel). The conditions of HPLC procedure are presented in Supplementary Materials. (B) Table summarizing GI50 values (µM) each cell line treated with VNLG-152R and its enantiomers. TNBC cell subtypes were treated with listed compound (0.1 nmol/L–100 µmol/L) for 7 days and the GI50 values for the anti-proliferative effects of the compounds were determined from dose response curves (by a nonlinear regression analysis using Graph Pad Prism). Data represents the results from six independent experiments for each cell line. (C) Plasma concentration versus time profile after intravenous (IV, 2 mg/kg each, top panel) or oral (PO, 20 mg/kg each, bottom panel) of VNLG-152R (red), VNLG-152E1 (purple) and VNLG-152E2 (blue) to female CD1 mice. Values represent the mean plasma concentrations from three mice per time point. (D) Table of the pharmacokinetic parameters of various compounds after IV and PO dosing. AUC = area under the curve, T1/2 = elimination half-life, Cmax = maximum plasma concentration, F (%) = oral bioavailability. (E) Effects of VNLG-152R, VNLG-152E1 and VNLG-152E2 on body weight and clinical observations at chronic dose termination of study. Three different doses, i.e., 10, 25, and 50 mg/kg/day (formulated in 40% β-cyclodextrin in saline) of each compound were administered daily by oral gavage for 14 days. Each group consisted of three mice. Loss in body weight, a clinical sign of toxicity was observed during the 14 days of dosing and the maximum tolerated dose (MTD) was estimated following established procedures. Changes in body weight were scored on a scale of 0–4 as follows as described under methods. […]

[3] = 14-day oral toxicity / MTD study; parameters: species or system female athymic nude mice; conditions: mouse, in vivo, po
Description: Three different doses, i.e., 10, 25, and 50 mg/kg/day (formulated in 40% β-cyclodextrin in saline) of each compound were administered daily by oral gavage for 14 days. Each group consisted of 3 mice. Their body weight kinetics (loss in body weight, a clinical sign of toxicity) was observed during the 14 days of dosing following established procedures. Changes in body weight were scored on a scale of 0–4 as follows: (1) Weight loss: (10 g = 4, 7–9 g = 3, 4–6 g = 2, 1–3 g = 1; severe = 3, moderate = 2, slight = 1, none = 0).

Br-001 xenograft tumors = assay: Patient-derived TNBC xenograft (PDX), PO, racemate vs E1; format: in vivo, NSG mice; conditions: 20 mg/kg PO
Description: The second PDX tumor model experiment was conducted to assess the efficacy of VNLG-152R versus VNLG-152E1 following PO administration. When the tumor volumes had reached about 100 mm^3, the mice were randomly divided into three groups of five mice each. The control group received vehicle (PO) and the other two groups received VNLG-152R (20 mg/kg, PO, once daily), and VNLG-152E1 (20 mg/kg, PO, once daily) five days/week. These treatments continued for 15 days and the tumors were measured and processed as described above.

MDA-MB-231 xenografts = assay: MDA-MB-231 xenograft, racemate vs enantiomers, IP vs PO; format: in vivo, nude mice; conditions: 20 mg/kg per day PO, 36 days
Description: The second experiment designed to compare heal-to-head IP versus oral dosing (PO) and the efficacy of racemic VNLG-152 versus its two enantiomers was like that described above but consisted of eight groups. When the tumor volumes had reached about 100 mm^3, the mice were randomly divided into 8 groups of 5 mice each. The two control groups received vehicle (IP or OP) and the other six groups received VNLG-152R (20 mg/kg, IP or PO, once daily), VNLG-152E1 (20 mg/kg, IP or PO, once daily), and VNLG-152E2 (20 mg/kg, IP or PO, once daily) five days/week. These treatments continued for 36 days and the tumors were measured and processed as described above.

Mnk1 = target: T1, Mnk1 (Homo sapiens, UniProt Q9BUB5); assay: Streptavidin-agarose pull-down with biotinylated VNLG-152R; format: binding; conditions: 50 µg
T1 construct: incubated with recombinant full length Mnk1 proteins or cell lysates overnight at 4 °C; GST
T1 sequence (Q9BUB5 whole entry): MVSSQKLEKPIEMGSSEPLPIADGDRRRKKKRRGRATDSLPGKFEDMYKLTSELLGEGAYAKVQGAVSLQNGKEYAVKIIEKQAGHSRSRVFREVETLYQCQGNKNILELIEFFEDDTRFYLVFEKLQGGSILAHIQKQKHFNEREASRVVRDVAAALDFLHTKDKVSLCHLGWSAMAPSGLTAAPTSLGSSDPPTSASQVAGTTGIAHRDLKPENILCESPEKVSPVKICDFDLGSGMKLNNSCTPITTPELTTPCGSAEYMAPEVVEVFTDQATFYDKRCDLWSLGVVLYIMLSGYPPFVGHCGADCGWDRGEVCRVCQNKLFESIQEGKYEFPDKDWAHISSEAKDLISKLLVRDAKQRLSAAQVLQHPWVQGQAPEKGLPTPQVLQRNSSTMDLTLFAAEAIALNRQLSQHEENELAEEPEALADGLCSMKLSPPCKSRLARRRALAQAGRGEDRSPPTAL
Description: The streptavidin–agarose pull-down assay was performed as described previously. Biotin-VNLG-152R (50 µg) and biotin (50 µg; negative control) were preincubated with streptavidin agarose beads (Invitrogen, Waltham, MA, USA) overnight at 4 °C. The biotin-VNLG-152R-conjugated beads were washed three times with cold PBS and then incubated with recombinant full length Mnk1 proteins or cell lysates overnight at 4 °C. The bead-bound proteins were incubated and separated on a 10% SDS-PAGE and detected by western blot analysis for Mnk1.

MDA-MB-231 cells [4] = assay: Multiplex Luminex supernatant cytokine analysis; format: cell-based, human; conditions: 72 h, cell supernatants
Description: Supernatants from the MDA-MB-231 (TNBC) cells in Fetal Bovine Serum (FBS) containing media were treated with various concentrations of VNLG-12R for 72 h, were collected, and various cytokines and growth factor concentrations (CLCX-1, IL-6, IL8 and TNF-α) were determined by Luminex multiplex assay kit (Millipore, Billerica, MA, USA) according to the manufacturer’s instructions. The expressions of secreted cytokines were read on Luminex 100 reader. The data was then analyzed using the BioPlex Software (BioRad, Hercules, CA, USA). The Luminex multiplex assays were conducted at the University of Maryland School of Medicine Cytokine Core Laboratory (Baltimore, MD, USA).

MDA-MB-468 cells = assay: Head-to-head MTT antiproliferative assay, 6-day exposure; format: cell-based, human; conditions: Homo sapiens, MDA-MB-468, 144 h
Description: (§1) Figure 2 VNLG-152R inhibits mTORC1 signaling and the production of pro-inflammatory cytokines. (A) MDA-MB-231 and MDA-MB-468 cells were treated with the indicated concentrations of VNLG-152R for 72 h. Cell lysates were analyzed by immunoblotting with the indicated antibodies. (B) Head-to-head antiproliferative effects of VNLG-152R and eFT508 on MDA-MB-231 and MDA-MB-468 cells. The dose-response curves were generated from MTT assays after 6-day exposure to different concentrations of the compounds. Each point is a mean of replicates from three independent experiments. (C–E) MDA-MB-231 cell were treated with the indicated concentration of VNLG-152R or eFT508 for 72 h. Cell supernatants were collected, and the indicated cytokines were quantitated by Multiplex Luminex assay.
(§2) Cell growth inhibition assay was performed as described previously. For cell growth experiment, cells were treated with the VNLG-152R, VNLG-152E1 or VNLG-15E2 for 7 days. MTT assay was performed at the end of the experiment. Results represent the mean ± standard deviation of three independent experiments.

MDA-MB-231 cells [5] = assay: as above; format: cell-based, human; conditions: Homo sapiens, MDA-MB-231, 144 h
Description: as §1, §2

[6] = mean over 6 TNBC cell lines, read-out: average GI50
[7] = range over 6 TNBC cell lines, read-out: range of GI50

SMILES	F (%) oral bioavailability [1]	AUC(0-inf) ([1]; iv, 2 mg/kg)	T1/2 ([1]; iv, 2 mg/kg)	AUC(0-inf) ([1]; po, 20 mg/kg)	Cmax ([1]; po, 20 mg/kg)	T1/2 ([1]; po, 20 mg/kg)	GI50 [2, 6]	GI50 [2, 7]	maximum tolerated dose (MTD) [3]	changes in body weights (Br-001 xenograft tumors)	TGI (Br-001 xenograft tumors; 5 days per week, 15 days)	TGI (MDA-MB-231 xenografts)	Mnk1 captured in streptavidin pull-down (Mnk1; MDA-MB-231 cells)	Mnk1 captured in streptavidin pull-down (Mnk1; recombinant Mnk1 protein)	secreted IL-6 and IL-8, TNFα and chemokine CXCL1 (MDA-MB-231 cells [4])	secretion of CXCL1 (MDA-MB-231 cells [4])	GI50 (MDA-MB-468 cells)	GI50 (MDA-MB-231 cells [5])
CC1=C(/C=C/C(C)=C/C=C/C(C)=C/C(=O)Nc2ccc(F)cc2)C(C)(C)CCC1n1ccnc1 (single isomer, unassigned) [VNLG-152E1]	161.9%	2100 ng·h/mL	1.78 h	34000 ng·h/mL	4880 ng/mL	4.49 h	2300 nM	980 to 4790 nM	> 50 mg/kg	No changes in body weights were observed	79%	78%	–	–	–	–	–	–
CC1=C(/C=C/C(C)=C/C=C/C(C)=C/C(=O)Nc2ccc(F)cc2)C(C)(C)CCC1n1ccnc1 (single isomer, unassigned) [VNLG-152E2]	72.8%	1840 ng·h/mL	1.10 h	13400 ng·h/mL	3590 ng/mL	4.02 h	390 nM	100 to 1170 nM	> 50 mg/kg	–	–	–	–	–	–	–	–	–
CC1=C(/C=C/C(C)=C/C=C/C(C)=C/C(=O)N(CCOC(=O)CCCC[C@@H]2SC[C@@H]3NC(=O)N[C@@H]32)c2ccc(F)cc2)C(C)(C)CCC1n1ccnc1 (stereo partly drawn) [VNLG-152R-biotin]	–	–	–	–	–	–	–	–	–	–	–	–	direct binding of Mnk1 to VNLG-152R-biotin in MDA-MB-231 cells	substantial amounts of Mnk1 was found only in the VNLG-152R-biotin-treated sample	–	–	–	–
Cc1cc(Nc2cc(N)ncn2)c(=O)n2c1C(=O)NC21CCCCC1.Cl [eFT508, 6′-[(6-aminopyrimidin-4-yl)amino]-8′-methyl-2′Hspiro[cyclohexane-1,3′-imidazo-[1,5-a]pyridine]-1′,5′-dione hydrochloride (1:1), reference compound]	–	–	–	–	–	–	–	–	–	–	–	–	–	–	dose-dependent reduction	seem to stimulate secretion of CXCL1	52500 nM	7070 nM
